# Data from PubChem BioAssay AID1259407 (Chemical Carcinogenesis Research Information System (CCRIS), 2018).
# Activity calls are given as the source filed them. How the calls were made is not given here.
# Test system: CCRIS mutagenicity, Ames/micronucleus/aberration tests
# Assay: CCRIS mutagenicity studies
compound,measurement,setting,value
[N-]=[N+]=NC[C@H]1O[C@H](O)[C@H](O)[C@@H](O)[C@H]1O,mutagenic call,"Test System: AMES SALMONELLA TYPHIMURIUM, Strain/Indicator: TA98, Metabolic Activation: NONE, Method: STANDARD PLATE",inactive; negative
same,mutagenic call,"Test System: AMES SALMONELLA TYPHIMURIUM, Strain/Indicator: TA100, Metabolic Activation: NONE, Method: STANDARD PLATE",active; positive
COC1=CC(=O)C[C@@H](C)[C@]12Oc1c(Cl)c(OC)cc(OC)c1C2=O,mutagenic call,"End Point: IN VITRO CHROMOSOMAL ABERRATIONS, Test System: PERIPHERAL HUMAN BLOOD LYMPHOCYTES, Metabolic Activation: NONE",active; positive (ploidy changes)
same,mutagenic call,"End Point: IN VITRO MICRONUCLEUS, Test System: CHO CELLS, Metabolic Activation: RAT, LIVER, S-9, AROCLOR 1254",active; positive
same,mutagenic call,"End Point: IN VITRO MICRONUCLEUS, Test System: V79 CELLS, Metabolic Activation: NONE",active; positive
same,mutagenic call,"Test System: AMES SALMONELLA TYPHIMURIUM, Strain/Indicator: TA97, Metabolic Activation: HAMSTER, LIVER, S-9, AROCLOR 1254 (10 OR 30%), Method: PREINCUBATION",inactive; negative
same,mutagenic call,"Test System: AMES SALMONELLA TYPHIMURIUM, Strain/Indicator: TA97, Metabolic Activation: NONE, Method: PREINCUBATION",inactive; negative
same,mutagenic call,"Test System: AMES SALMONELLA TYPHIMURIUM, Strain/Indicator: TA97, Metabolic Activation: RAT, LIVER, S-9, AROCLOR 1254 (10 OR 30%), Method: PREINCUBATION",inactive; negative
same,mutagenic call,"Test System: AMES SALMONELLA TYPHIMURIUM, Strain/Indicator: TA98, Metabolic Activation: HAMSTER, LIVER, S-9, AROCLOR 1254 (10 OR 30%), Method: PREINCUBATION",inactive; negative
same,mutagenic call,"Test System: AMES SALMONELLA TYPHIMURIUM, Strain/Indicator: TA98, Metabolic Activation: NONE, Method: PREINCUBATION",inactive; negative
same,mutagenic call,"Test System: AMES SALMONELLA TYPHIMURIUM, Strain/Indicator: TA98, Metabolic Activation: RAT, LIVER, S-9, AROCLOR 1254 (10 OR 30%), Method: PREINCUBATION",inactive; negative
same,mutagenic call,"Test System: AMES SALMONELLA TYPHIMURIUM, Strain/Indicator: TA100, Metabolic Activation: HAMSTER, LIVER, S-9, AROCLOR 1254 (10 OR 30%), Method: PREINCUBATION",inactive; negative
same,mutagenic call,"Test System: AMES SALMONELLA TYPHIMURIUM, Strain/Indicator: TA100, Metabolic Activation: NONE, Method: PREINCUBATION",inactive; negative
same,mutagenic call,"Test System: AMES SALMONELLA TYPHIMURIUM, Strain/Indicator: TA100, Metabolic Activation: RAT, LIVER, S-9, AROCLOR 1254 (10 OR 30%), Method: PREINCUBATION",inactive; negative
same,mutagenic call,"Test System: AMES SALMONELLA TYPHIMURIUM, Strain/Indicator: TA100, Metabolic Activation: RAT, LIVER, S-9, PHENOBARBITAL, Method: PREINCUBATION",inactive; negative
same,mutagenic call,"Test System: AMES SALMONELLA TYPHIMURIUM, Strain/Indicator: TA1535, Metabolic Activation: HAMSTER, LIVER, S-9, AROCLOR 1254 (10 OR 30%), Method: PREINCUBATION",inactive; negative
same,mutagenic call,"Test System: AMES SALMONELLA TYPHIMURIUM, Strain/Indicator: TA1535, Metabolic Activation: NONE, Method: PREINCUBATION",inactive; negative
same,mutagenic call,"Test System: AMES SALMONELLA TYPHIMURIUM, Strain/Indicator: TA1535, Metabolic Activation: RAT, LIVER, S-9, AROCLOR 1254 (10 OR 30%), Method: PREINCUBATION",inactive; negative
same,mutagenic call,"Test System: AMES SALMONELLA TYPHIMURIUM, Strain/Indicator: TA1537, Metabolic Activation: HAMSTER, LIVER, S-9, AROCLOR 1254 (30%), Method: PREINCUBATION",inactive; negative
same,mutagenic call,"Test System: AMES SALMONELLA TYPHIMURIUM, Strain/Indicator: TA1537, Metabolic Activation: NONE, Method: PREINCUBATION",inactive; negative
same,mutagenic call,"Test System: AMES SALMONELLA TYPHIMURIUM, Strain/Indicator: TA1537, Metabolic Activation: RAT, LIVER, S-9, AROCLOR 1254 (30%), Method: PREINCUBATION",inactive; negative
same,mutagenic call,"Test System: MOUSE LYMPHOMA, Strain/Indicator: L5178Y (TK+/TK-), Metabolic Activation: NONE, Method: MICROWELL",active; positive
same,mutagenic call,"Test System: MOUSE LYMPHOMA, Strain/Indicator: L5178Y (TK+/TK-), Metabolic Activation: S-9, Method: MICROWELL",active; positive
